Test [1] has as its system E. coli csrA::kanB pBAD-nahK. In words: microbe, parasite or virus in culture. The arrangement: species or system E. coli MG1655 csrA::kanB. The note with it: Escherichia coli, read-out: pBAD-nahK [Ara] = 50 mg/L.
Test [2] concerns E. coli csrA::kanB pBAD-nahK. Kind of test: microbe, parasite or virus in culture. The arrangement: species or system E. coli MG1655 csrA::kanB. The note with it: Escherichia coli, read-out: pBAD-nahK [Ara] = 0 mg/L.
Test [3] has as its system E. coli csrA::kanB pBAD-nahK. Kind of test: microbe, parasite or virus in culture. The arrangement: species or system E. coli MG1655 csrA::kanB. The note with it: Escherichia coli, read-out: pBAD-nahK [Ara] = 50 mg/L, DTT.
Test [4] concerns E. coli csrA::kanB pBAD-nahKm. In words: microbe, parasite or virus in culture. Also noted: species or system E. coli MG1655 csrA::kanB. The note with it: Escherichia coli, read-out: pBAD-nahKm [Ara] = 50 mg/L.
Test [5] deals with T1, PgaCDm (PgaC V227L PgaD N75D/K76E) (Escherichia coli, UniProt P75905, V227L).
T1 sequence (P75905 1-441 V227L): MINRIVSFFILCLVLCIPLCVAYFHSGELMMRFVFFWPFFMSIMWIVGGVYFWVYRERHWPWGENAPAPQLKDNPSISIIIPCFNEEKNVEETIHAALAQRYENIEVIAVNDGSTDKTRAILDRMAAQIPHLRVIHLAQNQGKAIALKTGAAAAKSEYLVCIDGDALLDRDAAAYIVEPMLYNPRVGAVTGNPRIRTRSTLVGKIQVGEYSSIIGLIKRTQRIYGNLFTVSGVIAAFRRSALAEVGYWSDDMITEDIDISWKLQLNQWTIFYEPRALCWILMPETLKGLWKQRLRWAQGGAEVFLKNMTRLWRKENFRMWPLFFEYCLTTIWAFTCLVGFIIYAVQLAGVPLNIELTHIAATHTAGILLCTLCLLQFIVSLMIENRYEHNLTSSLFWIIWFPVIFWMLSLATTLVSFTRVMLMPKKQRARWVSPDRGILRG
T1 sequence (P69432 1-137 N75D/K76E partner): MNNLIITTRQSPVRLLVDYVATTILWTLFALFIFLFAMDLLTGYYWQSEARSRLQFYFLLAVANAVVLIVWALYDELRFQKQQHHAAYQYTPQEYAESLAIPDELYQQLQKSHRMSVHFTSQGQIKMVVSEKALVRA
In words: WGA-HRP dot blot of PNAG, densitometry. It is filed as biochemical.

The test system of test [6] is E. coli csrA::kanB. Kind of test: microbe, parasite or virus in culture. The arrangement: species or system E. coli MG1655 csrA::kanB. The note with it: Escherichia coli, read-out: csrA::kanB [Ara] = 0 mg/L.

Read-outs that look alike come from different tables or passages of the source.

For eleven compounds, IC50 results are on record in article doi:10.1101/2021.10.13.464265v1 (biorxiv, 2021).

On to `CC(=O)NC1C(O)OC(CS)C(O)C1O` (centres unmarked) [1-SH, 6-thioGlcNAc], for which the IC50 was 130 µM in test [1], more than 2000 µM in test [2], 64 ± 2 µM in test [3] and more than 2000 µM in test [4].
Consider `CC(=O)N[C@H]1C(O)O[C@H](CF)[C@@H](O)[C@@H]1O` (mixture of isomers) [1-F, 6-fluoroGlcNAc], for which the values for the IC50 in test [1], in test [2] and in test [4] were 13 ± 3 µM, more than 2000 µM and more than 2000 µM, respectively.
In test [5], `CC(=O)N[C@H]1[C@@H](OP(=O)(O)OP(=O)(O)OC[C@H]2O[C@@H](n3ccc(=O)[nH]c3=O)[C@H](O)[C@@H]2O)O[C@H](CF)[C@@H](O)[C@@H]1O` [2-F, UDP-6-fluoroGlcNAc] came in with an IC50 of 150 ± 10 µM.
Still for that read-out and setting: for `O=c1ccn([C@@H]2O[C@H](COP(=O)(O)OP(=O)(O)O)[C@@H](O)[C@H]2O)c(=O)[nH]1` [UDP] the value was 2700 ± 900 µM; for `CC(=O)N[C@H]1[C@@H](OP(=O)(O)OP(=O)(O)OC[C@H]2O[C@@H](n3ccc(=O)[nH]c3=O)[C@H](O)[C@@H]2O)O[C@H](CN)[C@@H](O)[C@@H]1O` [2-NH2, 6-amino derivative], 480 ± 60 µM.
For `CC(=O)N[C@H]1C(O)O[C@H](C)[C@@H](O)[C@@H]1O` (mixture of isomers) [1-H, 6-deoxyGlcNAc], the IC50 in test [6] was found to be 530 ± 30 µM; in test [1], 8 ± 2 µM; in test [2], 330 ± 10 µM; in test [4], 500 ± 100 µM.
As for `CC(=O)NC1C(O)OC(CN=[N+]=[N-])C(O)C1O` (centres unmarked) [1-N3, 6-azidoGlcNAc], the results for the IC50 in test [1], in test [2] and in test [4] were 2700 ± 400 µM, more than 5000 µM and more than 5000 µM, respectively.
As for `CC(=O)N[C@H]1[C@@H](OP(=O)(O)OP(=O)(O)OC[C@H]2O[C@@H](n3ccc(=O)[nH]c3=O)[C@H](O)[C@@H]2O)O[C@H](C)[C@@H](O)[C@@H]1O` [2-H, UDP-6-deoxyGlcNAc], in test [5], the IC50 is 30 µM.
Consider `CC(=O)NC1C(O)OC(CN)C(O)C1O` (centres unmarked) [1-NH2, 6-aminoGlcNAc], for which the IC50 in test [1] was 150 ± 60 µM; in test [2] it was more than 2000 µM; in test [4], more than 2000 µM.
With `CC(=O)N[C@H]1[C@@H](OP(=O)(O)OP(=O)(O)OC[C@H]2O[C@@H](n3ccc(=O)[nH]c3=O)[C@H](O)[C@@H]2O)O[C@H](CS)[C@@H](O)[C@@H]1O` [2-SH, UDP-6-thioGlcNAc], the IC50 in test [5] worked out at 60 ± 20 µM.
As to `CC(=O)N[C@H]1[C@@H](OP(=O)(O)OP(=O)(O)OC[C@H]2O[C@@H](n3ccc(=O)[nH]c3=O)[C@H](O)[C@@H]2O)O[C@H](CN=[N+]=[N-])[C@@H](O)[C@@H]1O` [2-N3, 6-azido analogue], the IC50 in test [5] is more than 10000 µM.
